Patent US20050101595A1, “N-containing cycloalkyl-substituted amino-thiazole derivatives and pharmaceutical compositions for inhibiting cell proliferation and methods for their use” (PFIZER INC., priority 2003, published 2005)
Counter-ions that a name gives are not always drawn. Like-named read-outs stand apart in the source and are kept apart here.

Tests used:
[1] = target: CDK2/Cyclin A (Homo sapiens, UniProt P24941); experiment: Inhibition of CDK2/Cyclin A Retinoblastoma Kinase Activity; assay type: biochemical; conditions: for Ki: apparent Ki, CDK2/proteolyzed cyclin A, Rb fragment substrate, 25 μM ATP
Procedure, shortened: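 Percent inhibition is calculated against DMSO-only wells after subtracting no-enzyme background. The enzyme is human CDK2 complexed with proteolyzed cyclin A, used at 10 nM or 19 nM on an Rb fragment with 25 μM [32/33P]ATP, at pH 7.4 and 30° C.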

[2] = target: human CDK4 and genetically truncated (1-264) cyclin D3 (Homo sapiens, UniProt P11802); experiment: Inhibition of CDK4/Cyclin D Retinoblastoma Kinase Activity; assay type: biochemical; conditions: for Ki: apparent Ki, CDK4/truncated cyclin D3, Rb fragment substrate, 25 μM ATP
Chain of human CDK4 and genetically truncated (1-264) cyclin D3 (P11802 whole entry, the tested form may be a part): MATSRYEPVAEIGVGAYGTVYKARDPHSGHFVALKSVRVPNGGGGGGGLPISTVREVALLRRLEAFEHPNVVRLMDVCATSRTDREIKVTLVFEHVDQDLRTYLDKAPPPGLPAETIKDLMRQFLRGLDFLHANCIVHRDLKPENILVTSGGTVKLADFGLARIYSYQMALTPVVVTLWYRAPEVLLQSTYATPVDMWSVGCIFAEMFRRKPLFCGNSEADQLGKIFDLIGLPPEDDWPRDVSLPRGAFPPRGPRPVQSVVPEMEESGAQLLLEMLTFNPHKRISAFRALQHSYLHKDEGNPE
Chain of human CDK4 and genetically truncated (1-264) cyclin D3 (P30281 1-264 partner): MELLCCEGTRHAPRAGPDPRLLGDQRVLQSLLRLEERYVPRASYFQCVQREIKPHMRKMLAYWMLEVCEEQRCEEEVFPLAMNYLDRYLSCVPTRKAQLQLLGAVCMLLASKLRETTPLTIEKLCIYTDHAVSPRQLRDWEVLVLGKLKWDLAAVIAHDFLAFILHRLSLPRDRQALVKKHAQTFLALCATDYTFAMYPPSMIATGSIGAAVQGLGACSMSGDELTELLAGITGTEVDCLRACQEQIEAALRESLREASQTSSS
Procedure, shortened: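 Apparent Ki values derive from fitting activity at varied inhibitor concentrations to a competitive (or competitive tight-binding) model. Kinase reactions used 5 nM CDK4/cyclin D3(1-264), Rb fragment substrate and 25 μM ATP. Incubation ran 20 min at 30 °C, extended to 60 min under linear conditions for tight binders.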

[3] = system: HCT-116 cell line; experiment: Inhibition of cell growth, tetrazolium salt (MTT) assay; assay type: cell-based; conditions: for HCT-116 % Inhibition at 0.25 μM: 0.25 μM compound; for IC50: Homo sapiens, HCT-116, 120 h, MTT, three to five days, read-out: HCT-116 IC50
Procedure, shortened: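 Growth inhibition by MTT reduction at 540 nm (0.2 mg/mL, 4 h at 37° C, formazan dissolved in DMSO), normalized to cells given only 0.5% v/v DMSO. HCT-116 cultures in McCoy's 5A were dosed 4 h post-plating and kept three to five days at 37° C, 5% CO2.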

[4] = 0.1 μM compound, HCT-116, Table 3

SMILES | CDK2 % Inhibition at 0.03 μM ([1]; at 0.03 μM) [%] | CDK4 % Inhibition at 0.03 μM ([2]; at 0.03 μM) [%] | Ki [1] [nM] | Ki [2] [nM] | IC50 ([3]; first HCT-116 column (c4)) [nM] | IC50 ([3]; second HCT-116 column (c5)) [nM] | HCT-116 % Inhibition at 0.1 μM ([3]; HCT-116 cells, at 0.1 μM) [%] | HCT-116 5 Inhibition at 0.25 μM ([3]; HCT-116 cells) | also measured
COc1ccc(S(=O)(=O)N2CCC(Nc3nc(N)c(C(=O)c4c(F)cccc4F)s3)CC2)cc1 [Example P20] |  |  |  |  |  |  |  |  | CDK2 % Inhibition at 0.03 μM ([1]; 0.03 μM compound, Table 3): 78%; CDK4 % Inhibition at 0.03 μM ([2]; 0.03 μM compound, Table 3): 76%; HCT-116 % Inhibition at 0.1 μM [3, 4]: 23%; HCT-116 % Inhibition at 0.25 μM ([3]; HCT-116, Table 3): 43%
CN(C)CCSc1ccc(S(=O)(=O)N2CCC(Nc3nc(N)c(C(=O)c4c(F)cccc4F)s3)CC2)cn1 [Example L1, 1-(4-Amino-2-{1-[6-(2-dimethylamino-ethylsulfanyl)-pyridine-3-sulfonyl]-piperidin-4-ylamino}-thiazol-5-yl)-1-(2,6-difluoro-phenyl)-methanone Dihydrochloride.] |  |  | 0.62 | 0.3 | 78 | > 500 |  |  | 
CCOC(=O)C(NC(=O)N1CCC(Nc2nc(N)c(C(=O)c3c(F)cccc3F)s2)CC1)C(C)C (stereo not shown) [Example O74] |  |  |  |  |  |  |  |  | CDK2 % Inhibition At 0.03 μM ([1]; 0.03 μM compound, Table 2): 35%; CDK4 % Inhibition at 0.03 μM ([2]; 0.03 μM compound, Table 2): 102%; HCT-116 % Inhibition at 0.25 μM ([3]; HCT-116, Table 2): 34%
Nc1nc(NC2CCN(C(=O)c3ccc([N+](=O)[O-])cc3)CC2)sc1C(=O)c1c(F)cccc1F [Example Q71] |  |  |  |  |  |  |  |  | CDK2 % Inhibition at 0.03 μM ([1]; 0.03 μM compound, Table 4): 28%; CDK4 % Inhibition at 0.03 μM ([2]; 0.03 μM compound, Table 4): 61%; HCT-116 % Inhibition at 0.1 μM ([3]; 0.1 μM compound, HCT-116, Table 4): 2%; HCT-116 % Inhibition at 0.25 μM ([3]; HCT-116, Table 4): 30%
CC1(C)CN(c2ccc(S(=O)(=O)N3CCC(Nc4nc(N)c(C(=O)c5c(F)cccc5F)s4)CC3)cc2)CCN1 [Example G31, 1-(4-Amino-2-{1-[4-(3,3-dimethyl-piperazin-1-yl)-benzenesulfonyl]-piperidin-4-ylamino}-thiazol-5-yl)-1-(2,6-difluoro-phenyl)-methanone] |  |  | 0.82 | 0.53 | 110 | 1500 |  |  | 
CN(C)CCN(C)Cc1ccc(S(=O)(=O)N2CCC(Nc3nc(N)c(C(=O)c4c(F)cccc4F)s3)CC2)cc1 [Example J9, 1-{4-Amino-2-[1-(4-{[(2-dimethylamino-ethyl)-methyl-amino]-methyl}-benzenesulfonyl)-piperidin-4-ylamino]-thiazol-5-yl}-1-(2,6-difluoro-phenyl)-methanone Hydrochloride Salt.] |  |  | 2.4 | 0.85 | 130 | 320 |  |  | 
CN1CCN=C1c1ccc(S(=O)(=O)N2CCC(Nc3nc(N)c(C(=O)c4c(F)cccc4F)s3)CC2)cc1 [Example J1, 1-[4-Amino-2-{1-[4-(1-methyl-4,5-dihydro-1H-imidazol-2-yl)-benzenesulfonyl]-piperidin-4-ylamino}-thiazol-5-yl)-1-(2,6-difluoro-phenyl)-methanone] |  |  | < 1 | 0.63 | 1200 | 5000 |  |  | 
CN(CCS(=O)(=O)N1CCC(Nc2nc(N)c(C(=O)c3c(F)cccc3F)s2)CC1)C1CCCC1 [Example K30, (4-Amino-2-{1-[2-(cyclopentyl-methyl-amino)-ethanesulfonyl]-piperidin-4-ylamino}-thiazol-5-yl)-(2,6-difluoro-phenyl)-methanone Trifluoroacetic Acid Salt.] |  |  | 9.4 | 2.4 | 190 | 620 |  |  | 
CCCCOc1ccc(S(=O)(=O)N2CCC(Nc3nc(N)c(C(=O)c4c(F)cccc4F)s3)CC2)cc1 [Example P49] |  |  |  |  |  |  |  |  | CDK2 % Inhibition at 0.03 μM ([1]; 0.03 μM compound, Table 3): 36%; CDK4 % Inhibition at 0.03 μM ([2]; 0.03 μM compound, Table 3): 54%; HCT-116 % Inhibition at 0.1 μM [3, 4]: 10%; HCT-116 % Inhibition at 0.25 μM ([3]; HCT-116, Table 3): 32%
Nc1nc(NC2CCN(S(=O)(=O)Cc3ccccc3)CC2)sc1C(=O)c1c(F)cccc1F [Example P25] |  |  |  |  |  |  |  |  | CDK2 % Inhibition at 0.03 μM ([1]; 0.03 μM compound, Table 3): 62%; CDK4 % Inhibition at 0.03 μM ([2]; 0.03 μM compound, Table 3): 82%; HCT-116 % Inhibition at 0.1 μM [3, 4]: 8%; HCT-116 % Inhibition at 0.25 μM ([3]; HCT-116, Table 3): 33%
Nc1nc(NC2CCN(S(=O)(=O)CCSC3CCCC3)CC2)sc1C(=O)c1c(F)cccc1F [Example K38, {4-Amino-2-[1-(2-cyclopentylsulfanyl-ethanesulfonyl)-piperidin-4-ylamino]-thiazol-5-yl}-(2,6-difluoro-phenyl)-methanone Trifluoroacetic Acid Salt.] |  |  | 7.9 | 6.4 | 460 | 3000 |  |  | 

Continued, in another order:

CDK2 % Inhibition at 0.03 μM ([1]; at 0.03 μM) [%] | CDK4 % Inhibition at 0.03 μM ([2]; at 0.03 μM) [%] | Ki [1] [nM] | Ki [2] [nM] | IC50 ([3]; first HCT-116 column (c4)) [nM] | IC50 ([3]; second HCT-116 column (c5)) [nM] | SMILES | HCT-116 % Inhibition at 0.1 μM ([3]; HCT-116 cells, at 0.1 μM) [%] | HCT-116 5 Inhibition at 0.25 μM ([3]; HCT-116 cells) | also measured
11 | 25 |  |  |  |  | CC(=O)Nc1ccccc1C(=O)N1CCC(Nc2nc(N)c(C(=O)c3c(F)cccc3F)s2)CC1 [Example R111] | 4 | 52 | 
22 | 15 |  |  |  |  | CCn1nc(C)c(Br)c1C(=O)N1CCC(Nc2nc(N)c(C(=O)c3c(F)cccc3F)s2)CC1 [Example R68] | 0 | 33 | 
9 | 24 |  |  |  |  | Cc1ccc(S(=O)(=O)CC(=O)N2CCC(Nc3nc(N)c(C(=O)c4c(F)cccc4F)s3)CC2)cc1 [Example R65] | 3 | 31 | 
−29 | 12 |  |  |  |  | COC(C(=O)N1CCC(Nc2nc(N)c(C(=O)c3c(F)cccc3F)s2)CC1)(c1ccccc1)C(F)(F)F (stereo not shown) [Example R16] | 6 | 41 | 
58 | 66 |  |  |  |  | CCCSc1ncccc1C(=O)N1CCC(Nc2nc(N)c(C(=O)c3c(F)cccc3F)s2)CC1 [Example R28] | 0 | 41 | 
24 | 32 |  |  |  |  | Nc1nc(NC2CCN(C(=O)c3cccnc3Sc3ccccc3)CC2)sc1C(=O)c1c(F)cccc1F [Example R41] | 0 | 41 | 
−13 | −27 |  |  |  |  | Nc1nc(NC2CCN(C(=O)C3(c4ccccc4)CCCC3)CC2)sc1C(=O)c1c(F)cccc1F [Example R95] | 0 | 38 | 
9 | 9 |  |  |  |  | CC1CCC(C(C)C)C(OC(=O)N2CCC(Nc3nc(N)c(C(=O)c4c(F)cccc4F)s3)CC2)C1 (stereo not shown) [Example R86] | 0 | 34 | 
37 | 54 |  |  |  |  | CCSc1ncccc1C(=O)N1CCC(Nc2nc(N)c(C(=O)c3c(F)cccc3F)s2)CC1 [Example R19] | 0 | 46 | 
